One data set deals with T1, SP6 RNA polymerase (Enterobacteria phage SP6, UniProt P06221).
T1 construct: purchased New England BioLabs
T1 sequence (P06221 1-874): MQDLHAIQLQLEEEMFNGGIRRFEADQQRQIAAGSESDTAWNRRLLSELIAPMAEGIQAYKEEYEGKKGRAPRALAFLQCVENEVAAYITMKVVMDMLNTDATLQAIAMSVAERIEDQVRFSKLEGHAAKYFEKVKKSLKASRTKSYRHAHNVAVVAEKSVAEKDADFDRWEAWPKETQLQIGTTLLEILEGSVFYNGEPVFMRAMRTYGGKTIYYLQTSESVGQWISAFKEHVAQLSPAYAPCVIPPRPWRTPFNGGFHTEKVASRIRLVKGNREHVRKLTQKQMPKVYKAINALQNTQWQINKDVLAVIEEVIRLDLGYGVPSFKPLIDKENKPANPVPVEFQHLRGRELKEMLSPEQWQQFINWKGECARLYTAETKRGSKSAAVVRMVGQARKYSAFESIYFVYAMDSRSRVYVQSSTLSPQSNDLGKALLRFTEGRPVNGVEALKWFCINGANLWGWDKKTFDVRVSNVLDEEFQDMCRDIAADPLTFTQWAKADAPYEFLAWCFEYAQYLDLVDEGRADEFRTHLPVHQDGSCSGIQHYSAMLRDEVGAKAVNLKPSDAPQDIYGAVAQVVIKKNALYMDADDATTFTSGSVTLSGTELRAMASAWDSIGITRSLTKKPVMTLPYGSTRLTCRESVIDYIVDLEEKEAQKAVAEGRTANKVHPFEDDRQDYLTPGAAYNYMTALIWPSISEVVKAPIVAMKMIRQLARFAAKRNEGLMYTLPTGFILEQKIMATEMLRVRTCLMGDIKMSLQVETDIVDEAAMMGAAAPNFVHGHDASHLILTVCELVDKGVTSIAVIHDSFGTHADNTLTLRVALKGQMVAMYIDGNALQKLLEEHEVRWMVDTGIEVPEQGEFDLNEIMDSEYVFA
Kind of data set: Capping efficiency: incorporation of cap analogues at the 5′ end of short transcripts by in vitro transcription. The format is biochemical. To be noted: 1.25 mM cap analogue, 0.125 mM GTP. As for the experimental part:
Prior to in vitro transcription annealing of a template was performed. DNA1 (SEQ ID NO: 1) and DNA2 (SEQ ID NO: 2) (20 μM each) were incubated in the presence of 4 mM Tris-HCl pH 8.0, 15 mM NaCl and 0.1 mM EDTA at 95° C. for 2 min and then at room temperature for 30 min. After 10-fold dilution the mixture was directly used for in vitro transcription.
The reaction was quenched by addition of 2 μl of 0.5 M EDTA pH 8.0 and purified with RNA Clean&Concentrator-5 kit (Zymo Research) to afford capped RNA1 (SEQ ID NO: 4) strands.
To reduce heterogeneity, each capped RNA1 (11.42 ng/μl, ca. 1 μM) was incubated in presence of 50 mM Tris-HCl pH 8.0, 50 mM MgCl2, RiboLock RNase Inhibitor (ThermoFisher Scientific) (2.0 U/μl) and DNA3 (SEQ ID NO: 3) (1 μM) at 37° C. for 1 h to afford RNA2 (SEQ ID NO: 5).^44 The reaction was stopped by freezing in liquid nitrogen and directly analyzed by PAGE (FIG. 3).
Relative bands intensity was determined using CLIQS v1.0 program.

Data set [1] concerns the target T2, eIF4E (Mus musculus, UniProt P63073). To be noted: reference cap analogues, values from refs 42/43; cited from earlier work.
The test system of data set [2] is Rabbit Reticulocyte Lysate. Kind of data set: Translation efficiency of capped firefly luciferase mRNA in Rabbit Reticulocyte Lysate System. The format is biochemical. To be noted: relative, m^7GpppG = 1. On the procedure: The reaction was quenched by addition of 2 μl of 0.5 M EDTA pH 8.0 and purified with NucleoSpin RNA Clean-up XS kit (Macherey-Nagel) to afford luciferase-coding RNA strands capped with appropriate cap analogue.
For each capped luciferase-coding RNA four diluted solutions were prepared—3.0 ng/μl, 1.5 ng/μl, 0.75 ng/μl, 0.375 ng/μl. Translation studies were performed using Rabbit Reticulocyte Lysate System (Promega). 9 μl of a mixture containing Rabbit Reticulocyte Lysate (4 μl), Amino Acid Mixture Minus Leucine (0.05 μl of 1 mM solution), Amino Acid Mixture Minus Methionine (0.05 μl of 1 mM solution), potassium acetate (1.9 μl of 1 M solution), MgCl2 (0.4 μl of 25 mM solution) and 2.1 μl of water was incubated at 30° C. for 1 h after which 1 μl of appropriate luciferase-coding RNA solution was added and incubation of the reaction was continued at 37° C. for another hour. The reaction was stopped by freezing in liquid nitrogen.
Translation efficiency was determined using Luciferase Reporter System (Promega). The samples were defrosted just before the experiment. To every sample 50 μl of Luciferase Assay Reagent was added just before measurement of luminescence on Synergy H1 Microplate Reader (Bio Tek). The measurement were performed for every four samples independently due to low stability of luminescence signal. The results are presented on. FIG. 4 as proportions between regression coefficients of linear relationships between capped luciferase-coding RNA concentration in translation reaction (300 pg/μl, 150 pg/μl, 75 pg/μl, 37.5 pg/μl) and corresponding luminescence signal.

A short description of data set [3]: Hydrolysis in D2O seen in NMR spectra. To be noted: dissolved in D2O just before NMR measurement; given if higher than 5%. The format is physicochemical. As for the experimental part:
Some cap analogues hydrolyzed in D2O gradually. Although pure compounds (see HPLC profiles, Supporting Information 2) were dissolved in D2O just before measurements, the spectra indicated some level of hydrolysis. % of hydrolysis is provided along with compound characterization data, if higher than 5%.

The target in data set [4] is T2, eIF4E. Kind of data set: Association constants (KAS) of cap analogue-eIF4E complexes, fluorescence quenching titration. The format is binding. To be noted: 20° C., 50 mM Hepes/KOH pH 7.20, 100 mM KCl; weighted average of triplicate. On the procedure:
Association constants for cap analogue-eIF4E complexes were determined using fluorescence quenching titration method as described previously.^42 Measurements were performed using a quartz cuvette with optical path length of 4 mm for absorption and 10 mm for emission on LS-50B spectrofluorometer Perkin-Elmer Co. (Waltham, Mass., USA). Titration experiments were carried out at 20° C. in 50 mM Hepes/KOH buffer, pH 7.20 containing 100 mM KCl, 0.5 mM EDTA, and 1 mM DTT. During the experiment 1 μl aliquots of ligand solution was added to the 1400 μl of 0.1 μM protein solution. Protein fluorescence was monitored at 337 or 345 nm (excitation 280 or 295 nm, respectively). For data analysis fluorescence intensity correction was applied for sample dilution and inner filter effect. Association constants were determined by fitting theoretical dependence of fluorescence intensity on total ligand concentration. Each experiment was performed in triplicate, the association constants were calculated as weighted averages.

This is an account of results in patent US20200055891A1, “NOVEL PHOSPHOTRIAZOLE MRNA 5'-END CAP ANALOGS, COMPOSITION COMPRISING THE SAME, RNA MOLECULE INCORPORATING THE SAME, USES THEREOF AND METHOD OF SYNTHESIZING RNA MOLECULE, PROTEIN OR PEPTIDE” (UNIWERSYTET WARSZAWSKI, priority 2016, published 2020).

Like-named read-outs stand apart in the source and are kept apart here.

T2 sequence (P63073 28-217 limits assumed): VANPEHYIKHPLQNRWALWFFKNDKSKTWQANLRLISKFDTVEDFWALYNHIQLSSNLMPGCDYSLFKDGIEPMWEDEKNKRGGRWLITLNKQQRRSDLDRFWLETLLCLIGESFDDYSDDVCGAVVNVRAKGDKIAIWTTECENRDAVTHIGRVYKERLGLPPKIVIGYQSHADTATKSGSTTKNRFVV

`CO[C@H]1[C@@H](O)[C@H]([n+]2cn(C)c3c(=O)[nH]c(N)nc32)O[C@@H]1COP(=O)([O-])OP(=O)(O)OP(=O)(O)OC[C@H]1O[C@@H](n2cnc3c(=O)[nH]c(N)nc32)[C@H](O)[C@@H]1O` [m2^7,3′-OGpppG, reference compound] yielded a Capping efficiency on SP6 RNA polymerase of 83%. Further, the KAS on eIF4E [1] was 10.2 ± 0.6^43 μM^−1. Further, the Translation efficiency in data set [2] came out at 1.526 ± 0.043.

In the case of `Cn1c[n+]([C@@H]2O[C@H](COP(=O)(O)OP(=O)([O-])O)[C@@H](O)[C@H]2O)c2nc(N)[nH]c(=O)c21` [m^7GDP], the KAS on eIF4E [1] is given as 20.4 ± 1.5^42 μM^−1.

With `C[n+]1cn([C@@H]2O[C@H](COP(=O)(O)NCCn3cc(P(=O)([O-])OP(=O)(O)OP(=O)(O)OC[C@H]4O[C@@H](n5cnc6c(=O)[nH]c(N)nc65)C(O)C4O)nn3)C(O)C2O)c2nc(N)[nH]c(=O)c21` (stereo partly shown) [m^7GpNHC2H4tpppG, m^7GpNHC2H4-triazole-pppG], the “hydrolysis in D2O” value in data set [3] worked out at 9%. Also, on SP6 RNA polymerase, the Capping efficiency amounted to 57%. Moreover, the KAS on eIF4E [4] was found to be 3.10 ± 0.18 µM⁻¹. Also, the Translation efficiency in data set [2] amounted to 0.103 ± 0.027.

Turning to `C[n+]1cn([C@@H]2O[C@H](COP(=O)(O)OP(=O)(O)CCc3cn(CCNP(=O)(O)OP(=O)([O-])OC[C@H]4O[C@@H](n5cnc6c(=O)[nH]c(N)nc65)[C@@H](O)C4O)nn3)[C@H](O)C2O)c2nc(N)[nH]c(=O)c21` (stereo partly shown) [m^7GppC2H4tC2H4NHppG, m^7GppC2H4-triazole-C2H4NHppG], in data set [3], the “hydrolysis in D2O” value is listed as 10%. The Capping efficiency at SP6 RNA polymerase was 48.8%. In addition, the Translation efficiency in data set [2] is given as 0.085 ± 0.017.

For `C[n+]1cn([C@@H]2O[C@H](COP(=O)([O-])OP(=O)(O)NCCn3cc(CCP(=O)(O)OP(=O)(O)OC[C@H]4O[C@@H](n5cnc6c(=O)[nH]c(N)nc65)[C@@H](O)C4O)nn3)C(O)[C@@H]2O)c2nc(N)[nH]c(=O)c21` (stereo partly shown) [m^7GppNHC2H4tC2H4ppG, m^7GppNHC2H4-triazole-C2H4ppG], in data set [3], the “hydrolysis in D2O” value stood at 11%. The compound further returned a Capping efficiency at SP6 RNA polymerase of 30%. For the same compound, the Translation efficiency in data set [2] was 0.239 ± 0.028.

In the case of `C[n+]1cn([C@@H]2O[C@H](COP(=O)(O)OP(=O)([O-])OP(=O)(O)Cc3cn(CCNP(=O)(O)OC[C@H]4O[C@@H](n5cnc6c(=O)[nH]c(N)nc65)C(O)C4O)nn3)C(O)C2O)c2nc(N)[nH]c(=O)c21` (stereo partly shown) [m^7GpppCH2tC2H4NHpG, m^7GpppCH2-triazole-C2H4NHpG], the “hydrolysis in D2O” value in data set [3] is listed as 9%. Besides, on SP6 RNA polymerase, the Capping efficiency is listed as 44%. At eIF4E [4], this compound came in with a KAS of 18.21 ± 0.72 µM⁻¹. Moreover, the Translation efficiency in data set [2] worked out at 0.94 ± 0.11.

The compound `Cn1c[n+]([C@@H]2O[C@H](COP(=O)(O)OP(=O)([O-])OP(=O)(O)OC[C@H]3O[C@@H](n4cnc5c(=O)[nH]c(N)nc54)[C@H](O)[C@@H]3O)[C@@H](O)[C@H]2O)c2nc(N)[nH]c(=O)c21` [m^7GpppG, reference compound] had a Capping efficiency on SP6 RNA polymerase of 90%. Further, the KAS on eIF4E [1] was 12.5 ± 0.3^43 μM^−1. For the same compound, the Translation efficiency in data set [2] amounted to 1.

For `C[n+]1cn([C@@H]2O[C@H](COP(=O)(O)OP(=O)(O)OP(=O)([O-])c3cn(CCNP(=O)(O)OC[C@H]4O[C@@H](n5cnc6c(=O)[nH]c(N)nc65)C(O)C4O)nn3)C(O)C2O)c2nc(N)[nH]c(=O)c21` (stereo partly shown) [m^7GppptC2H4NHpG, m^7Gppp-triazole-C2H4NHpG], the “hydrolysis in D2O” value in data set [3] was 13%. At SP6 RNA polymerase, this compound displayed a Capping efficiency of 52%. For the same compound, the KAS at eIF4E [4] was found to be 21.94 ± 0.69 µM⁻¹. For the same compound, the Translation efficiency in data set [2] is recorded as 0.89 ± 0.11.

Take “m2^7,2′-OGppp-triazole-C2H4NHpG [m2^7,2′-OGppptC2H4NHpG]”: the “hydrolysis in D2O” value in data set [3] came to 8%. This compound returned a Capping efficiency at SP6 RNA polymerase of 41%. In addition, the Translation efficiency in data set [2] is reported as 1.462 ± 0.182.
